Structure (SMILES)	melting point
Cn1c(-c2cccnc2)c(CCCCCC(=O)O)c2ccccc21	117 to 120 °C
Cc1ccccc1-c1cn2ccc3ccccc3c2n1	93 °C
Nc1ccc2snc(-c3sccc3Cl)c2c1	128 to 132 °C
C=CCc1c(OCCCOc2ccc(C(C)=O)c(O)c2CCC)ccc2oc(C(=O)O)cc12	157 to 158 °C
N#Cc1sc(Cl)c(Cl)c1Cl	63 to 64 °C
NC(=S)NN=C(CCCNC(=O)C1CCCCC1)c1ccccc1	158 to 159 °C
Cn1c(=O)c(-c2c(Cl)cccc2Cl)cc2cnc(Nc3ccccc3)nc21	247 to 249 °C
O=S(=O)(c1ccc(-n2ncnc2-c2cnccn2)cc1)C(F)F	152 to 154 °C
FC(F)(F)c1ccc(-c2cc(Oc3ccc4cccnc4c3)ncn2)cc1	178 to 180 °C
O=C(CC(=O)C(F)F)c1cccs1	78 to 80 °C
CCCc1c(C(=O)C(C)C)c2ccc(C(=O)O)cc2n1Cc1ccccc1OC	190 to 191 °C
Cn1cc(Br)nc(Nc2cccnc2)c1=O	> 250 °C
COc1c(Br)cc(Br)c2ccc(C=Cc3ccccc3)nc12	150 to 152 °C
OC1(c2ccc(Cl)cc2)CCN(CCCc2nnc3n2CCCCC3)CC1	163 °C
CC(C)(C)OC(=O)NC(=S)NC(=O)OC(C)(C)C	124 to 127 °C
CC(Cc1ccc(O)cn1)NC1CC1 (stereo not drawn)	161 °C
Cn1cc(C2=CCN(CCCn3nnc4ccccc4c3=O)CC2)c2ccccc21	70 °C
Sc1nsnc1-c1c(Cl)cccc1Cl	91 to 94 °C

Second part, the compound after the results:

melting point	Structure (SMILES)
160 to 162 °C	COc1cc(C(=O)NCC2c3ccccc3CC(C)N2C(=O)c2ccccc2)cc(OC)c1OC (stereo not drawn)
200 to 201 °C	Cn1cc(-c2ccc(C(=O)N3Cc4cccn4Cc4ccccc43)cc2)cn1
32.7 to 33 °C	CCCCCCCc1ccc(C=Nc2ccc(C#N)cc2)cc1
55 to 58 °C	N#Cc1cc(Cl)ncc1Cl
107 to 108 °C	CCCCCC(=O)NS(=O)(=O)CCc1cc(OC(C)C)nn1Cc1ccc(Cl)cc1Cl
210 to 212 °C	CCOC(=O)NN=Cc1c[nH]c(C)n1
97 to 98 °C	CCOC(=O)C(C(N)=O)C12CC3CC(CC(C3)C1)C2 (stereo not drawn)
147 to 149 °C	CNC(=O)N1CC(C)(C)NC(C)(C)CC1=O
163 to 164 °C	Cc1ccc(C)c2c1CN(NC(=S)NC(=O)c1ccccc1)C2
191 to 192 °C	c1ccc2c(c1)ncc1nc(C3CCC3)[nH]c12
251 to 255 °C	CNc1nc(=O)c2ccccc2n1Cc1ccc(F)cc1
133 to 134 °C	O=C(O)c1ccccc1Oc1ccc(C(F)(F)F)cc1NS(=O)(=O)c1cc(C(F)(F)F)cc(C(F)(F)F)c1
60 to 63 °C	BrCCCOc1ccc(-c2ccccc2)cc1
62 to 63 °C	c1cc2c(cc1OCC1CCCCC1)CCCCC2
250 to 251 °C	O=C(NCc1ccccn1)c1[nH]c2ccc(Cl)cc2c1S(=O)(=O)c1ccccc1
104 to 106 °C	COc1ccc(CS(=O)(=O)Cc2ccc(OC)cc2OC)c(OC)c1
121 to 124 °C	O=c1oc(-c2ccccc2)cc(O)c1SCCc1ccccc1
123 to 125 °C	C[C@@H]1CNCc2cc3ccc(C(F)(F)F)cc3n21
135 to 136 °C	COc1cc2c(c3c1OC(C)(C)C3)C(Nc1ccccc1)=NC(C)(C)C2
185 °C	NC(=O)Cc1c(N)cc(Br)cc1OCc1ccccc1
231 to 233 °C	CCCn1c(=O)c(N=O)c(N)n(CC2CCCCC2)c1=O
68 to 72 °C	O=C(Nc1ccc2[nH]ccc2c1)C(=O)N1CCC(Cc2ccccc2)CC1
163 to 164 °C	O=CC(c1ccccc1)c1nc(-c2ccncc2)cs1 (stereo not drawn)
92 to 93 °C	CNC(=C[N+](=O)[O-])NCCCSc1nc(C)co1
104 to 106 °C	CCOCc1ncccc1CN(CCn1ccc2oc(C)cc2c1=O)Cc1ccc2c(c1)N(C)C(=O)C(C)(C)C(=O)N2CC

Reference: a melting point compilation (Tetko et al.; mined from patent text by program, amines drawn as free bases though some values may be those of a salt)
